Assay results: paper PMC6423129, “Activity and structural analysis of GRL-117C: a novel small molecule CCR5 inhibitor active against R5-tropic HIV-1s” (Scientific Reports, 2019)

Assays:
HIV-1KP-5mvcR = assay: TZM-bl single-round infection assay, MVC-resistant HIV-1KP-5mvcR; assay type: cell-based
Method: (§1) MAGI-CCR5 cells[18] were maintained in DMEM supplemented with 10% fetal calf serum (FCS: Gemini Bio-Products, West Sacramento, CA), 200 μg/ml G418, 100 μg/ml hygromycin B, and 100 μg/ml zeomycin. The Chinese hamster ovary (CHO) cells expressing CCR5[19] were maintained in Ham’s F-12 medium (GIBCO-BRL, Rockville, MD) supplemented with 10% FCS, 50 U/ml penicillin, and 50 μg/ml streptomycin in the presence of 5 μg/ml blasticidin S hydrochloride. TZM-bl cells were obtained from the NIH AIDS Reagent Program, and were cultured in DMEM with 10% FCS. Peripheral blood mononuclear cells (PBMCs) were isolated from buffy coats of HIV-1 seronegative individuals, and were activated with 10 μg/ml phytohemagglutinin (PHA) prior to use[16]. A laboratory wild-type R5-HIV-1 strain (HIV-1Ba-L)[37] was employed for drug susceptibility assays. AD101 (experimental CCR5 inhibitor) and VVC-resistant HIV clones[7],[8] were provided by Dr. John P. Moore of Cornell University for this study. The clones were propagated with activated PBMCs, and were used for the assays. A clinical HIV-1 strain, HIV-1KP-5pc, and an MVC-resistant isolate, HIV-1KP-5mvcR, were prepared and used for antiviral assays, as previously described[10],[38]. The following reagents (plasmids) for T/F HIV-1 viruses[22],[24] were obtained through the NIH AIDS Reagent Program, Division of AIDS, NIAID, NIH: pCH040.c/2625 (cat# 11740), pCH106.c/2633 (cat# 11743), pTHRO.c/2626 (cat# 11745), and pCH058.c/2960 (cat# 11856), from Dr. John Kappes and Dr. Christina Ochsenbauer.
(§2) Antiviral assays using PHA-PBMCs (p24 assay) were conducted as previously reported[16],[38]. In brief, PHA-PBMCs (1 × 10^6/ml) were exposed to 50 TCID50 of HIV-1Ba-L or drug-resistant HIV-1 infectious clones in the presence or absence of various concentrations of drugs; 10-fold serial dilutions were performed in 96-well microculture plates. The amount of p24 antigens produced by the cells was determined on day 7 in the culture via a commercially available ELISA kit (PerkinElmer). The p24 production level in drug-free control cell cultures was used as the reference. […] Antiviral assays using MAGI-CCR5 cells (MAGI assay) were conducted as previously reported[16],[39]. Single-round virus infection assays using TZM-bl cells infected with R5-HIV-1s (HIV-1YU2, HIV-1KP-5pc, and HIV-1KP-5mvcR)[10] were also conducted as previously described.

[1] = test system: D1/85.16 cl.23 (VVC resistant); assay: microbe, parasite or virus in culture; assay type: cell-based, HIV-1
Method: as §1, §2

[2] = test system: CC101.19 cl.7 (AD101 resistant); assay: microbe, parasite or virus in culture; assay type: cell-based, HIV-1
Method: as §1, §2

CCR5 [3] = biological target: T1, CCR5 (Homo sapiens, UniProt P51681); assay: Inhibition of 125I-MIP-1α binding to CCR5 (CCR5+ CHO cells)
T1 construct: expressed in transfected cells; host or cells: Chinese hamster ovary (CHO) cells expressing CCR5
T1 sequence (P51681 whole entry): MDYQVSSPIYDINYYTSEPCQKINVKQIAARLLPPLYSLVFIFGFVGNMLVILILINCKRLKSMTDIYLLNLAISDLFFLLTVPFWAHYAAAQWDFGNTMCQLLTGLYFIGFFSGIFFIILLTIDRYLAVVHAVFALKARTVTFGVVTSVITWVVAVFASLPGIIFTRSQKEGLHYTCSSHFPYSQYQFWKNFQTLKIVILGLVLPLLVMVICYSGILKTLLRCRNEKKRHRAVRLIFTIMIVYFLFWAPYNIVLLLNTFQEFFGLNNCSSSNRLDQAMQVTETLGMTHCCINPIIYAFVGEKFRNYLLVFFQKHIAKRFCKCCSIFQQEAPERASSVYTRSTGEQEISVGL
Method: (§3) In order to determine whether GRL derivatives block the binding of CC-chemokines to CCR5, we conducted a CC-chemokine binding inhibition assay using ^125I-labeled CC-chemokines (^125I-RANTES, ^125I-MIP-1α, and ^125I-MIP-1β) and CCR5 expressing cells.
(§4) CCR5^+ CHO cells were incubated with (A) ^125I-MIP-1α, (B) ^125I-MIP-1β, and (C) ^125I-RANTES (200 ng/ml) in the presence or absence of varying concentrations of CCR5 inhibitors. Data are shown as means ± s.d. of three independent experiments.
(§5) The inhibition of the binding of ^125I-labeled CC-chemokines ([^125I] RANTES, [^125I] MIP-1α, or [^125I] MIP-1β) to CCR5 by various CCR5 inhibitors was measured as previously described. Calcium flux inhibition assays were also performed with CCR5 inhibitors, and were carried out with the Fluo-4 Direct^TM calcium reagent (Invitrogen); assays were conducted as previously described with minor modifications. In brief, CHO-CCR5 cells (5 × 10^5 cells) were exposed to Fluo-4 Direct^TM calcium reagent for 60 min at 37 °C in RPMI containing 5% FCS. Cells were then incubated with the test compound for 30 min at varying concentrations. Subsequently, cells were exposed to either MIP-1α, MIP-1β, or RANTES at 200 ng/ml. Relative increases in cytosolic Ca^2+ levels after chemokine exposure were determined with flow cytometry (FACSCalibur, BD Biosciences), and IC50 values of cytosolic Ca^2+ mobilization (Ca^2+ flux) were compared with the Ca^2+ flux level in drug-free control samples.

HIV-1YU2 = assay: TZM-bl single-round infection assay, HIV-1YU2; assay type: cell-based; conditions: Human immunodeficiency virus 1, YU2, drug-sensitive, mean ± SD
Method: as §1, §2

R5-HIV-1BaL = assay: p24 assay using PBMCs and R5-HIV-1BaL; assay type: cell-based; conditions: Human immunodeficiency virus 1, BAL, PBMC, 168 h, Ba-L (PBMCs), day 7
Method: as §1, §2

CC1/85 cl.7 = assay: Anti-HIV-1 assay, drug-naive clinical strain CC1/85 cl.7; assay type: cell-based; conditions: Human immunodeficiency virus 1
Method: as §1, §2

CCR5 [4] = biological target: T1, CCR5; assay: Inhibition of 125I-RANTES binding to CCR5 (CCR5+ CHO cells)
Method: as §3, §4, §5

CCR5 [5] = biological target: T1, CCR5; assay: Inhibition of 125I-MIP-1β binding to CCR5 (CCR5+ CHO cells)
Method: as §3, §4, §5

[6] = Human immunodeficiency virus 1, TZM-bl

For `C=CCN(C(=O)OCc1ccc([N+](=O)[O-])cc1)C1CC2CCC(C1)N2CCC(C)(CN(C)S(=O)(=O)c1ccccc1)c1ccccc1` (stereo not drawn) [GRL-117C], the “IC50 against HIV-1KP-5mvcR relative to that of MVC” value (HIV-1KP-5mvcR; 686 nM vs MVC 41 nM) was “more than 10 fold”, the IC50 (HIV-1KP-5mvcR; [6]) was 686 ± 89 nM and the IC90 (HIV-1KP-5mvcR; [6]) was > 100 nM. For the same compound, the IC50 ([1]; D1/85.16 cl.23 (VVC resistant)) was 29.8 nM, the IC90 ([1]; Human immunodeficiency virus 1) was 415 nM and the IC50 ([1]; Human immunodeficiency virus 1, D1/85.16 cl.23 (VVC resistant)) was < 40 nM. For the same compound, the IC50 ([2]; CC101.19 cl.7 (AD101 resistant)) was 32.5 nM, the IC90 ([2]; Human immunodeficiency virus 1) was 296 nM and the IC50 ([2]; Human immunodeficiency virus 1, CC101.19 cl.7 (AD101 resistant)) was < 40 nM. The EC50 (CCR5 [3]) was 4.3 nM, the IC50 (HIV-1YU2) was 68 ± 8.8 nM and the IC90 (HIV-1YU2) was > 100 nM. It also gave an IC50 (R5-HIV-1BaL) of 8.1 nM, an IC90 (R5-HIV-1BaL) of 48.3 nM and an IC50 (CC1/85 cl.7) of 3.5 nM. It also gave an IC90 (CC1/85 cl.7) of 28.9 nM, an EC50 (CCR5 [4]) of 121 nM and an EC50 (CCR5 [5]) of 2 nM.
